In patent publication EP3494999A1, “PSMA LIGANDS FOR IMAGING AND ENDORADIOTHERAPY” (Technische Universität München, priority 2017, dated 2019):

How the values were obtained:
human serum albumin [1] = target: T1, human serum albumin (Homo sapiens, UniProt P02768); assay: Literature HSA binding of the reference substances used to calibrate the HSA column; conditions: logarithmic K of human serum albumin binding, from the literature HSA%
Method: The mobile phase was freshly prepared for each experiment and only used for one day. The column was kept at room temperature and each run was stopped after detection of the signal to reduce the acquisition time. All substances were dissolved in a 0.5mg/ml concentration in 50% 2-Propanol and 50% 50mM pH 6.9 ammonium acetate buffer. […] All nine reference substances were injected consecutively to establish a non-linear regression with OriginPro 2016G. […] Table 1: Reference substances used for the calibration of the HSA-column.

human serum albumin [2] = target: T1, human serum albumin; conditions: literature value of human serum albumin binding (Valko et al. or Yamazaki et al.); cited from earlier work

T1 sequence (P02768 25-609): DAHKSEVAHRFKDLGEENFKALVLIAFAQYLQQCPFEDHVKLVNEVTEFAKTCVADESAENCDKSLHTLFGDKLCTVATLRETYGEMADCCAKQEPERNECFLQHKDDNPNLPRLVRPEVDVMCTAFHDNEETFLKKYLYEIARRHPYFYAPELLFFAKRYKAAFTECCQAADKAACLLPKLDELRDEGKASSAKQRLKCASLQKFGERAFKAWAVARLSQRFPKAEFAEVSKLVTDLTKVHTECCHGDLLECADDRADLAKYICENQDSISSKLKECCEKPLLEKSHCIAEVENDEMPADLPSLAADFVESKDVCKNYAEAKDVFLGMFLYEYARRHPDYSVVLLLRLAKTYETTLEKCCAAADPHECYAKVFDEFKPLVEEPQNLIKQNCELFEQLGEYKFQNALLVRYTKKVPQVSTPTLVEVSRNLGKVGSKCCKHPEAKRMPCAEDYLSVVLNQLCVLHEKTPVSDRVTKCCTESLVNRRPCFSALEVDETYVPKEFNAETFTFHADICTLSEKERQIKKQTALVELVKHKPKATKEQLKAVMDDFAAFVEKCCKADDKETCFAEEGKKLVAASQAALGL

SMILES | Log K HSA (human serum albumin [1]) | Lit. HSA% (human serum albumin [2]) [%]
COc1ccc(Cl)cc1C(=O)NCCc1ccc(S(=O)(=O)NC(=O)NC2CCCCC2)cc1 [Glibenclamide] | 1.69 | 99.00
Nc1ccccc1 [Aniline] | -0.79 | 14.06
O=C(O)c1ccccc1 [Benzoic Acid] | -0.29 | 34.27
Oc1ccccc1 [Phenol] | -0.59 | 20.69
